# Read-outs that look alike come from different tables or passages of the source.
# Assays:
# [1] = format: in vivo, Beagle dogs
# Protocol: The objectives of this study were to evaluate the potential toxicity of 25HC3S when administered once daily by subcutaneous injection to Beagle dogs for 14 consecutive days. 25HC3S sodium salt in the vehicle (250 mg/mL hydroxypropyl-beta-cyclodextrin with 10 mM sodium phosphate buffer [approximate pH 7.6] in sterile water for irrigation) was administered via subcutaneous injection in the dorsoscapular area once daily for 14 consecutive days to 3 groups (Groups 2-4) of Beagle dogs. Dosage levels were 3, 10, and 30 mg/kg/day for Groups 2, 3, and 4, respectively. […] The dose volume was 1, 0.1, 0.33, and 1 mL/kg for Groups 1, 2, 3, and 4, respectively. Each group consisted of 4 males and 4 females. The animals were observed twice daily for mortality and moribundity. Clinical examinations (including injection site observations) were performed once daily for at least 6 days, including the day of randomization, prior to randomization, prior to dose administration, immediately following dose administration, and at approximately 2 hours following dose administration. Blood samples for toxicokinetic evaluation were collected from all animals prior to dosing (study day 0 only) and at 0.5, 1, 2, 4, 8, and 24 hours after dosing on study days 0 and 13.
# [2] = dog, in vivo
# Protocol: Injection routes of administration used were intramuscular, intravenous or subcutaneous. The following example is a representative injection study.
# Beagle dogs (n=5/dose group) received a single intravenous bolus injection or a single subcutaneous injection. The parenteral solution that was tested included 25 mg/mL of 25HC3S sodium salt in vehicle (200 mg/mL hydroxypropyl betadex with 10 mM sodium phosphate buffers, in water). The intravenous dose level of 2.5 mg/kg was administered in a dose volume of 0.1 mL/kg whereas the subcutaneous injection dose level of 20 mg/kg was administered in a dose volume of 0.8 mL/kg. Whole blood samples were collected at pre-dose, 0.5, 1, 2, 4, 8, 12, 24, 32 and 48 hours (h) post dose and the resulting plasma samples underwent analyses to quantify 25HC3S levels. During the in-life period, animals were observed daily for mortality and moribundity with clinical examinations conducted daily.
# [3] = tested on: CLP surgery-induced sepsis model; test: Survival in rodent model of surgically-induced sepsis (cecum ligation puncture); format: in vivo, CD rats; conditions: 30 mg/kg sc within 30 minutes after surgery, end of study (3 days or 72 hours), N=5
# Protocol: The subjects for the study were 10 male CD rats (12-13 weeks of age, 400-450 g).
# A solution formulation of 25HC3S sodium salt and its respective vehicle was used for the study. The Vehicle was a solution of 40 mg/mL hydroxypropyl betadex with 10 mM sodium phosphate buffer in 70% (v/v) of 0.9% (w/v) sodium chloride and 30% (v/v) of sterile water. 25HC3S sodium salt was pre-dissolved into the Vehicle solution to result in a drug concentration of 5 mg/mL. The 25HC3S solution was ready-to-use at the start of dosing. Both the vehicle and 25HC3S solution were stored at room temperature. Before dosing, the 25HC3S solution was confirmed to be clear and void of any precipitation. Otherwise, if precipitation was observed, the solution was to be sonicated at room temperature for 10 minutes to dissolve particulates.
# The CLP procedure is an established and widely-used approach to investigate the progression and characteristics of clinical sepsis. On the day of surgery, animals were weighed and monitored for their baseline temperature. Animals were anesthetized with isoflurane and depth of anesthesia was checked by toe-pinching. Dipyrone (an analgesic) was given subcutaneously prior to surgery. […]
# Rats were monitored for survival for 3 days after CLP surgery and 25HC3S treatment. […]
# Animals were monitored for mortality, “clinical signs” and pain level. […]
# [4] = Compatibility of 25HC3S for Injection with container closure system; format: physicochemical; conditions: 10 mL glass vial, FluroTec coated stopper; up to 12 months 2-8°C, 6 months 25°C/60% RH and 40°C/75% RH, inverted
# Protocol: 25HC3S for Injection is a sterile powder, for injection solution. The 25HC3S stability with the 10 mL glass vial and FluroTec® coated stopper was studied up to 12 months at 2-8° C., 6 months at 25° C./60% RH, and 6 months at 40° C./75% RH with vials stored in the inverted orientation.
smiles,measurement,setting,value
"C[C@H](CCCC(C)(C)O)[C@H]1CC[C@H]2[C@@H]3CC=C4C[C@@H](OS(=O)(=O)[O-])CC[C@]4(C)[C@H]3CC[C@]12C.[Na+] [25HC3S, 5-cholesten-3, 25-diol, 3-sulfate]",survival to the scheduled necropsy,"[1]; Beagle dogs, sc 3, 10, 30 mg/kg/day, 14 days",All animals survived
same,injection site changes,"[1]; dog, in vivo, sc",no injection site changes appeared directly attributable
same,mean AUClast,"[1]; dog, in vivo, sc, 30 mg/kg/day","19,877 ng*hr/mL"
same,mean C.,"[1]; dog, in vivo, sc, 30 mg/kg/day","7,753 ng/mL"
same,"AUCall, Mean (SD)",[2]; iv,489 (464) ng * hr/mL
same,Cmax,[2]; iv,439 ng/mL
same,"Tmax, Mean (SD)",[2]; iv,0.5 (0) hr
same,Cmax,"[2]; iv, 2.5 mg/kg",439 ng/mL
same,mean AUClast,"[2]; iv, 2.5 mg/kg",478 ng·h/mL
same,plasma levels at 8h,"[2]; iv, 2.5 mg/kg",no observable levels in most animals (n=4)
same,time point of maximal concentration,"[2]; iv, 2.5 mg/kg",0.5 h
same,"AUCall, Mean (SD)",[2]; sc,19676 (3716) ng * hr/mL
same,Cmax,[2]; sc,3940 ng/mL
same,"Tmax, Mean (SD)",[2]; sc,1.8 (1.3) hr
same,observed bioavailability,[2]; sc,0.7
same,AUClast,"[2]; sc, 20 mg/kg",19503 ng·h/mL
same,Cmax,"[2]; sc, 20 mg/kg",3936 ng/mL
same,rats that had died,[3],60%
same,compatibility with container closure system,[4],good compatibility

# From patent publication US20230047788A1, “COMPOSITIONS COMPRISING 5-CHOLESTEN-3, 25-DIOL, 3-SULFATE (25HC3S) OR PHARMACEUTICALLY ACCEPTABLE SALT THEREOF AND AT LEAST ONE CYCLIC OLIGOSACCHARIDE” (Virginia Commonwealth University, priority 2016, published 2023)
